The record followed here is the supplement of paper PMC11208160.
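Also: IS621 bridge recombinase in Escherichia coli cells against a fixed T5 target plasmid.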

The data set is described as follows: recombinant UMI read abundance after kanamycin selection (control-corrected) (log10(CPM+1)); higher = more efficient recombination; extreme values may be limits of the assay; sequences stand for … in AGTGCAGAGAAAATCGGCCAGTTTTCTCTGCCTGCAGTCCGCATGCCGTGGGACCCCTTGGGTTCTAACCTGTTGCCTAGATTTATGCAGCGGACTGCCTTTCTCCCAAAGTGATAAACCGG…AGGTTGGTTTCACT; site = the 11-nt donor. A digest of the protocol:
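Sequenced counts of recombinant UMIs were turned into CPM, averaged across replicates and scaled with control-derived factors. The reported figure is log10(CPM+1). Those UMIs, each 12 nt long, tagged donor and donor-binding-loop pairs on a plasmid with a promoterless kanamycin gene, screened as a pool in Escherichia coli with IPTG (0.07 mM) plus kanamycin or without selection.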
In the case of “CTCCTAACATGGACCGGTTTTCCCGGTAATCCGTATTTGGA (site CTTCTAACTTC)”, the “recombinant UMI read abundance (log10)” value was found to be 0.0149.

On to “CTCCTTACATGGACCGGTTTTCCCGGTAATCCGTATTTGAG (site CTCCATACTCT)”, for which the “recombinant UMI read abundance (log10)” value is 0.

Consider “CTCCTTACATGGACCGGTTTTCCCGGTAATCCGTATTTGAG (site CTCCCTACTCT)”, for which the “recombinant UMI read abundance (log10)” value is 0.00731.

Turning to “CTCCTTACATGGACCGGTTTTCCCGGTAATCCGTATTTGAG (site CTCCGTACTCT)”, the “recombinant UMI read abundance (log10)” value amounted to 0.

With “CTCCTTACATGGACCGGTTTTCCCGGTAATCCGTATTTGAG (site CTCCTTACTCT)”, the “recombinant UMI read abundance (log10)” value was 0.201.

As for “CTCGACACATGGACCGGTTTTCCCGGTAATCCGTATTTGGA (site CTCGACACTTC)”, the “recombinant UMI read abundance (log10)” value was 0.942.

In the case of “CTCGCTACATGGACCGGTTTTCCCGGTAATCCGTATTTGAG (site CTCACTACTCT)”, the “recombinant UMI read abundance (log10)” value was 0.085.

For “CTCGCTACATGGACCGGTTTTCCCGGTAATCCGTATTTGAG (site CTCCCTACTCT)”, the “recombinant UMI read abundance (log10)” value was 0.00726.

Regarding “CTCGCTACATGGACCGGTTTTCCCGGTAATCCGTATTTGAG (site CTCGCTACTCT)”, the “recombinant UMI read abundance (log10)” value turned out to be 1.03.

Turning to “CTCGCTACATGGACCGGTTTTCCCGGTAATCCGTATTTGAG (site CTCTCTACTCT)”, the “recombinant UMI read abundance (log10)” value is 0.139.

For the sequence “CTCGGCCCATGGACCGGTTTTCCCGGTAATCCGTATTTGTT (site CACGGCCCTAA)”, the “recombinant UMI read abundance (log10)” value stood at 0.0311.

On to “CTCGGCCCATGGACCGGTTTTCCCGGTAATCCGTATTTGTT (site CCCGGCCCTAA)”, for which the “recombinant UMI read abundance (log10)” value is 0.0244.

As to “CTCGGCCCATGGACCGGTTTTCCCGGTAATCCGTATTTGTT (site CGCGGCCCTAA)”, the “recombinant UMI read abundance (log10)” value was found to be 0.0316.

With “CTCGGCCCATGGACCGGTTTTCCCGGTAATCCGTATTTGTT (site CTCGGCCCTAA)”, the “recombinant UMI read abundance (log10)” value was determined as 0.0107.

Consider “CTCGGCGCATGGACCGGTTTTCCCGGTAATCCGTATTTGCC (site CTCGGCGCTGG)”, for which the “recombinant UMI read abundance (log10)” value turned out to be 2.12.

“CTCGGGCCATGGACCGGTTTTCCCGGTAATCCGTATTTGTG (site CTCGGGCCTCA)”: the “recombinant UMI read abundance (log10)” value stood at 0.

For “CTCGTATCATGGACCGGTTTTCCCGGTAATCCGTATTTGTC (site CTAGTATCTGT)”, the “recombinant UMI read abundance (log10)” value came to 0.

Take “CTCGTATCATGGACCGGTTTTCCCGGTAATCCGTATTTGTC (site CTCGTATCTGA)”: the “recombinant UMI read abundance (log10)” value was 2.69.

On to “CTCGTCCCATGGACCGGTTTTCCCGGTAATCCGTATTTGTA (site CTCGTCCCTTA)”, for which the “recombinant UMI read abundance (log10)” value was 1.66.

Consider “CTCGTTACATGGACCGGTTTTCCCGGTAATCCGTATTTGTG (site CTCGTTACTCA)”, for which the “recombinant UMI read abundance (log10)” value amounted to 0.783.

Take “CTCTACACATGGACCGGTTTTCCCGGTAATCCGTATTTGCG (site CTCTACACTAG)”: the “recombinant UMI read abundance (log10)” value was 0.613.

Regarding “CTCTACACATGGACCGGTTTTCCCGGTAATCCGTATTTGCG (site CTCTACACTCG)”, the “recombinant UMI read abundance (log10)” value is 1.73.

“CTCTACACATGGACCGGTTTTCCCGGTAATCCGTATTTGCG (site CTCTACACTGG)”: the “recombinant UMI read abundance (log10)” value was 0.00583.

For the sequence “CTCTACACATGGACCGGTTTTCCCGGTAATCCGTATTTGCG (site CTCTACACTTG)”, the “recombinant UMI read abundance (log10)” value was found to be 0.829.

For the sequence “CTCTACGCATGGACCGGTTTTCCCGGTAATCCGTATTTGCT (site CTCTACACTAG)”, the “recombinant UMI read abundance (log10)” value is 0.475.

As for “CTCTACGCATGGACCGGTTTTCCCGGTAATCCGTATTTGCT (site CTCTACCCTAG)”, the “recombinant UMI read abundance (log10)” value was 0.

For the sequence “CTCTACGCATGGACCGGTTTTCCCGGTAATCCGTATTTGCT (site CTCTACGCTAG)”, the “recombinant UMI read abundance (log10)” value was 0.572.

With “CTCTACGCATGGACCGGTTTTCCCGGTAATCCGTATTTGCT (site CTCTACTCTAG)”, the “recombinant UMI read abundance (log10)” value came to 2.89.

Regarding “CTCTCCTCATGGACCGGTTTTCCCGGTAATCCGTATTTGCC (site CACTCCTCTGG)”, the “recombinant UMI read abundance (log10)” value was found to be 2.68.

Regarding “CTCTCCTCATGGACCGGTTTTCCCGGTAATCCGTATTTGCC (site CCCTCCTCTGG)”, the “recombinant UMI read abundance (log10)” value was 2.6.

With “CTCTCCTCATGGACCGGTTTTCCCGGTAATCCGTATTTGCC (site CGCTCCTCTGG)”, the “recombinant UMI read abundance (log10)” value was 2.57.

“CTCTCCTCATGGACCGGTTTTCCCGGTAATCCGTATTTGCC (site CTCTCCTCTGG)”: the “recombinant UMI read abundance (log10)” value turned out to be 2.63.

On to “CTCTGGACATGGACCGGTTTTCCCGGTAATCCGTATTTGGA (site TGAGTCTCTCA)”, for which the “recombinant UMI read abundance (log10)” value was 0.

Regarding “CTCTTGGCATGGACCGGTTTTCCCGGTAATCCGTATTTGGA (site CACTTGGCTTC)”, the “recombinant UMI read abundance (log10)” value stood at 0.273.

Consider “CTCTTGGCATGGACCGGTTTTCCCGGTAATCCGTATTTGGA (site CCCTTGGCTTC)”, for which the “recombinant UMI read abundance (log10)” value is 0.169.

With “CTCTTGGCATGGACCGGTTTTCCCGGTAATCCGTATTTGGA (site CGCTTGGCTTC)”, the “recombinant UMI read abundance (log10)” value amounted to 0.00297.

Consider “CTCTTGGCATGGACCGGTTTTCCCGGTAATCCGTATTTGGA (site CTCTTGGCTTC)”, for which the “recombinant UMI read abundance (log10)” value is 0.529.

As for “CTGAATCCATGGACCGGTTTTCCCGGTAATCCGTATTTGTG (site CGGAATCCTAA)”, the “recombinant UMI read abundance (log10)” value is 0.00601.

On to “CTGAATCCATGGACCGGTTTTCCCGGTAATCCGTATTTGTG (site CTGAATCCTCA)”, for which the “recombinant UMI read abundance (log10)” value was 0.684.

Take “CTGACCTCATGGACCGGTTTTCCCGGTAATCCGTATTTGTA (site CTGACCTCTTA)”: the “recombinant UMI read abundance (log10)” value came out at 2.34.

For the sequence “CTGAGATCATGGACCGGTTTTCCCGGTAATCCGTATTTGTA (site CTGAGATCTTA)”, the “recombinant UMI read abundance (log10)” value was 2.8.

In the case of “CTGAGGCCATGGACCGGTTTTCCCGGTAATCCGTATTTGGT (site CTGAGGCCTAC)”, the “recombinant UMI read abundance (log10)” value is 0.

As to “CTGATACCATGGACCGGTTTTCCCGGTAATCCGTATTTGCT (site CTGATACCTAG)”, the “recombinant UMI read abundance (log10)” value is 0.00587.

With “CTGATACCATGGACCGGTTTTCCCGGTAATCCGTATTTGCT (site CTGCTACCTAG)”, the “recombinant UMI read abundance (log10)” value amounted to 0.

As for “CTGATACCATGGACCGGTTTTCCCGGTAATCCGTATTTGCT (site CTGGTACCTAG)”, the “recombinant UMI read abundance (log10)” value is 0.

For “CTGATACCATGGACCGGTTTTCCCGGTAATCCGTATTTGCT (site CTGTTACCTAG)”, the “recombinant UMI read abundance (log10)” value stood at 0.

With “CTGCACACATGGACCGGTTTTCCCGGTAATCCGTATTTGAT (site CTGCACACTAT)”, the “recombinant UMI read abundance (log10)” value worked out at 2.25.

Turning to “CTGCCACCATGGACCGGTTTTCCCGGTAATCCGTATTTGCT (site CTGCAACCTAG)”, the “recombinant UMI read abundance (log10)” value is 0.

“CTGCCACCATGGACCGGTTTTCCCGGTAATCCGTATTTGCT (site CTGCCACCTAG)”: the “recombinant UMI read abundance (log10)” value is 0.00511.

On to “CTGCCACCATGGACCGGTTTTCCCGGTAATCCGTATTTGCT (site CTGCGACCTAG)”, for which the “recombinant UMI read abundance (log10)” value came out at 0.

Regarding “CTGCCACCATGGACCGGTTTTCCCGGTAATCCGTATTTGCT (site CTGCTACCTAG)”, the “recombinant UMI read abundance (log10)” value was found to be 0.

On to “CTGCCCACATGGACCGGTTTTCCCGGTAATCCGTATTTGCG (site CTGCCCACTCG)”, for which the “recombinant UMI read abundance (log10)” value stood at 1.76.

For the sequence “CTGCGAGCATGGACCGGTTTTCCCGGTAATCCGTATTTGCA (site CTGCGAGCTTG)”, the “recombinant UMI read abundance (log10)” value is 0.942.

On to “CTGCGTTCATGGACCGGTTTTCCCGGTAATCCGTATTTGGA (site CTGCGTTCTTC)”, for which the “recombinant UMI read abundance (log10)” value came to 1.44.

In the case of “CTGCTAACATGGACCGGTTTTCCCGGTAATCCGTATTTGCC (site CTGCTAACTGG)”, the “recombinant UMI read abundance (log10)” value worked out at 2.21.

For the sequence “CTGCTACCATGGACCGGTTTTCCCGGTAATCCGTATTTGAT (site CTGCTACCTAA)”, the “recombinant UMI read abundance (log10)” value amounted to 0.0178.

Turning to “CTGCTACCATGGACCGGTTTTCCCGGTAATCCGTATTTGAT (site CTGCTACCTAC)”, the “recombinant UMI read abundance (log10)” value was 0.00934.

In the case of “CTGCTACCATGGACCGGTTTTCCCGGTAATCCGTATTTGAT (site CTGCTACCTAG)”, the “recombinant UMI read abundance (log10)” value came out at 0.00723.

On to “CTGCTACCATGGACCGGTTTTCCCGGTAATCCGTATTTGAT (site CTGCTACCTAT)”, for which the “recombinant UMI read abundance (log10)” value was found to be 0.00649.

“CTGCTACCATGGACCGGTTTTCCCGGTAATCCGTATTTGCC (site CTGCTACCTAG)”: the “recombinant UMI read abundance (log10)” value came out at 0.

With “CTGCTACCATGGACCGGTTTTCCCGGTAATCCGTATTTGCC (site CTGCTACCTCG)”, the “recombinant UMI read abundance (log10)” value was found to be 0.00838.

As for “CTGCTACCATGGACCGGTTTTCCCGGTAATCCGTATTTGCC (site CTGCTACCTGG)”, the “recombinant UMI read abundance (log10)” value turned out to be 0.

With “CTGCTACCATGGACCGGTTTTCCCGGTAATCCGTATTTGCC (site CTGCTACCTTG)”, the “recombinant UMI read abundance (log10)” value was determined as 0.

“CTGCTACCATGGACCGGTTTTCCCGGTAATCCGTATTTGCT (site ATGCTACCTAG)”: the “recombinant UMI read abundance (log10)” value is 0.00358.

Turning to “CTGCTACCATGGACCGGTTTTCCCGGTAATCCGTATTTGCT (site CAGCTACCTAG)”, the “recombinant UMI read abundance (log10)” value amounted to 0.

For “CTGCTACCATGGACCGGTTTTCCCGGTAATCCGTATTTGCT (site CCGCTACCTAG)”, the “recombinant UMI read abundance (log10)” value was 0.

Regarding “CTGCTACCATGGACCGGTTTTCCCGGTAATCCGTATTTGCT (site CGGCTACCTAG)”, the “recombinant UMI read abundance (log10)” value is 0.

With “CTGCTACCATGGACCGGTTTTCCCGGTAATCCGTATTTGCT (site CTACTACCTAG)”, the “recombinant UMI read abundance (log10)” value amounted to 0.
